Experiment: xn = mol fraction of the nth substance listed
Details: Gas, Buoyancy - hydrostatic balance with magnetic suspension - two sinkers

[Ar] [argon] + O=C=O
Details	mass density [kg/m3]
273.15 K, 510.11 kPa, x2 = 0.7509	9.89648
273.15 K, 511.42 kPa, x2 = 0.5	9.60258
273.15 K, 1005.7 kPa, x2 = 0.7509	20.0055
273.15 K, 1013.1 kPa, x2 = 0.5	19.3275
273.15 K, 2007.3 kPa, x2 = 0.7509	42.2195
273.15 K, 2996.7 kPa, x2 = 0.7509	67.1561
273.15 K, 3008.4 kPa, x2 = 0.5	61.4185
273.15 K, 4022.5 kPa, x2 = 0.7509	97.4841
273.15 K, 4488.6 kPa, x2 = 0.7509	113.378
273.15 K, 5000.6 kPa, x2 = 0.7509	133.062
273.15 K, 5017 kPa, x2 = 0.5	110.665
273.15 K, 6031.1 kPa, x2 = 0.5	138.861
273.15 K, 6410 kPa, x2 = 0.5	150.086
283.15 K, 508.18 kPa, x2 = 0.7509	9.48215
283.15 K, 1002 kPa, x2 = 0.7509	19.109
283.15 K, 2002.5 kPa, x2 = 0.7509	40.0616
283.15 K, 2989.1 kPa, x2 = 0.7509	63.047
283.15 K, 3992.2 kPa, x2 = 0.7509	89.5274
283.15 K, 4988.1 kPa, x2 = 0.7509	120.07
283.15 K, 6073.3 kPa, x2 = 0.7509	160.561
283.15 K, 6588 kPa, x2 = 0.7509	183.67
283.15 K, 7263.8 kPa, x2 = 0.7509	219.753
293.15 K, 502.06 kPa, x2 = 0.7509	9.02478
293.15 K, 1001.8 kPa, x2 = 0.7509	18.3618
293.15 K, 2024.4 kPa, x2 = 0.7509	38.7149
293.15 K, 3001.1 kPa, x2 = 0.7509	60.0081
293.15 K, 4009 kPa, x2 = 0.7509	84.353
293.15 K, 4996.8 kPa, x2 = 0.7509	111.184
293.15 K, 6024 kPa, x2 = 0.7509	143.207
293.15 K, 7049 kPa, x2 = 0.7509	180.86
293.15 K, 8016.8 kPa, x2 = 0.7509	223.61
293.15 K, 9051.1 kPa, x2 = 0.7509	279.404
298.15 K, 505.28 kPa, x2 = 0.5	8.65443
298.15 K, 1014.6 kPa, x2 = 0.5	17.5824
298.15 K, 2019.2 kPa, x2 = 0.5	35.8258
298.15 K, 3020.7 kPa, x2 = 0.5	54.9064
298.15 K, 4024.4 kPa, x2 = 0.5	75.0005
298.15 K, 5017 kPa, x2 = 0.5	95.8895
298.15 K, 6025.4 kPa, x2 = 0.5	118.229
298.15 K, 7045.2 kPa, x2 = 0.5	142.007
298.15 K, 8014 kPa, x2 = 0.5	165.743
323.15 K, 514.24 kPa, x2 = 0.7509	8.34326
323.15 K, 516.98 kPa, x2 = 0.4998	8.14761
323.15 K, 1021 kPa, x2 = 0.7509	16.796
323.15 K, 1022 kPa, x2 = 0.4998	16.244
323.15 K, 2012.2 kPa, x2 = 0.7509	34.0421
323.15 K, 3034 kPa, x2 = 0.4998	49.9179
323.15 K, 3036.1 kPa, x2 = 0.7509	52.9514
323.15 K, 4037.8 kPa, x2 = 0.7509	72.6588
323.15 K, 5040.2 kPa, x2 = 0.4998	85.8585
323.15 K, 5061.8 kPa, x2 = 0.7509	94.214
323.15 K, 6055.5 kPa, x2 = 0.7509	116.646
323.15 K, 7040 kPa, x2 = 0.4998	124.127
323.15 K, 7054.8 kPa, x2 = 0.7509	140.911
323.15 K, 8053.7 kPa, x2 = 0.7509	167.037
323.15 K, 9016.6 kPa, x2 = 0.4998	164.336
323.15 K, 9045 kPa, x2 = 0.7509	195.026

— the NIST ThermoML archive (doi:10.1021/acs.jced.6b00687)
